From ChEMBL document CHEMBL5107977, “Inhibition of MARK4 by serotonin as an attractive therapeutic approach to combat Alzheimer's disease and neuroinflammation” (RSC Med Chem, 2022)

Columns and labels:
[1] = target: T1, MAP/microtubule affinity-regulating kinase 4 (Homo sapiens) (UniProt Q96L34); assay: Binding affinity to MARK4 (unknown origin) assessed as binding constant by fluorescence binding assay based spectroscopy
T1 sequence (whole entry): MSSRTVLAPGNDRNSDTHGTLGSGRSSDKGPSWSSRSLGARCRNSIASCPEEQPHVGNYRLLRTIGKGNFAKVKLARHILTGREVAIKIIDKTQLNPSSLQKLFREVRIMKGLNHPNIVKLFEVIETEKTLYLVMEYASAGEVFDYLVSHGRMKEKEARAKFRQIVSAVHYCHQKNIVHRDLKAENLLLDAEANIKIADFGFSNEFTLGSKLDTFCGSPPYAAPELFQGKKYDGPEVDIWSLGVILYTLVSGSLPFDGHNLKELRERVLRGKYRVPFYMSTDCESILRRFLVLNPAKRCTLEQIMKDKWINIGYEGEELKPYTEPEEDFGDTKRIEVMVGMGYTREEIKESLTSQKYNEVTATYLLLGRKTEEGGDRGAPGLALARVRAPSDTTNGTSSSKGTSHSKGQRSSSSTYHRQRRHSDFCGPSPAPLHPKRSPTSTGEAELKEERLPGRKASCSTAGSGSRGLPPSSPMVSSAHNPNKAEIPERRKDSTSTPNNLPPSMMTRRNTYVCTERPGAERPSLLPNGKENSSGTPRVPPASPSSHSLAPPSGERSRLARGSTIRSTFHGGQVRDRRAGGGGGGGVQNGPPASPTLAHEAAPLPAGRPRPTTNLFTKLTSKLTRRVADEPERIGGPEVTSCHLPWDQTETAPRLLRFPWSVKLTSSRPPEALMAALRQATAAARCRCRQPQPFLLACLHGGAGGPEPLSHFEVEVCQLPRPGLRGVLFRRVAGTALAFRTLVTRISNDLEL

[2] = target: T1, MAP/microtubule affinity-regulating kinase 4 (Homo sapiens); assay: Binding affinity to MARK4 (unknown origin) assessed as change in entropy by isothermal titration calorimetry
[3] = target: T1, MAP/microtubule affinity-regulating kinase 4 (Homo sapiens); assay: Binding affinity to MARK4 (unknown origin) assessed as change in enthalpy by isothermal titration calorimetry
[4] = target: T2, MAP/microtubule affinity-regulating kinase 4 (Homo sapiens, UniProt Q96L34); assay: Inhibition of MARK4 (unknown origin) ATPase activity using ATP as substrate incubated for 1.5 hr in presence of MgCl2 by Biomol green reagent based ELISA
T2 sequence (Q96L34 whole entry): T1 sequence (whole entry)

[5] = target: T1, MAP/microtubule affinity-regulating kinase 4 (Homo sapiens); assay: Binding affinity to MARK4 (unknown origin) assessed as Gibbs free energy change by MM-GBSA method
[6] = target: T1, MAP/microtubule affinity-regulating kinase 4 (Homo sapiens); assay: Binding affinity to MARK4 (unknown origin) assessed as association constant by isothermal titration calorimetry

NCCc1c[nH]c2ccc(O)cc12 [SEROTONIN]
K [1]: 0.3 10^6/M | deltaS [2]: -286 cal/mol/deg | deltaH [3]: -88.2 kcal/mol | IC50 [4]: 2990 nM | deltaG [5]: -32.8 kcal/mol | Ka [6]: 148 10^4/M
